Laboratory results from patent US7781187B2, “Fluorescent dyes” (Corning Incorporated, priority 2005, dated 2010).
Like-named read-outs stand apart in the source and are kept apart here.

Tests used:
dsDNA (20 mer) = assay: Emission intensity of dye with equimolar dsDNA relative to free dye (fluorescence spectrometer); settings: for direction of change in emission intensity upon addition of DNA / effect of ssDNA and dsDNA on dye emission: FIG. 2; for Free dye rel. to dsDNA: equimolar dsDNA (20 mer), emission intensity ratio
Text: (§1) FIG. 2 illustrates the effect of ssDNA and dsDNA on dye emission. […] All the dyes reported here show a larger change in emission intensity upon the addition of dsDNA than they do upon the addition of ssDNA; in some cases (GA, 95) this change is positive, in others it is negative (HE, HE-HE, FI).
Emission intensities of the fluorescent dyes of the present invention and TOTO-1™ at 1×10^−5 M in 1×PCR buffer were compared in the absence of DNA (free dye emission) and in the presence of equimolar dsDNA or ssDNA (20 mer) on the fluorescence spectrometer. […]

dsDNA [1] = assay: Titration of dyes with dsDNA in 96-well microplate (sensitivity and dynamic range, SpectraMax Gemini plate reader)
Description: The fluorescent dyes shown in Table 5 were titrated with dsDNA in order to determine the sensitivity (lowest detection limit) and dynamic range. A 96-well polystyrene Corning Costar® (a trademark of Corning Incorporated) microwell plate was loaded with 100 μL/well of dye mixed with various levels of dsDNA and incubated at room temperature for 2 hours allowing the mixture to equillibrate. The dye fluorescence was then measured on a SpectraMax® (a trademark of Molecular Devices Corp.) Gemini Plate-reader. Relative fluorescence units (RFU) were then plotted against DNA concentration in pg/μL.

dsDNA [2] = assay: ssDNA/dsDNA selectivity in the plate reader assay (FIG. 3)
Text: FIG. 3 illustrates the ssDNA/dsDNA selectivity of the fluorescent dyes of the present invention, HE-HE and 95, versus the commercially available fluorescent dye TOTO-1™ in the plate reader assay. […] By learning more about the binding modes of the disclosed dyes, it should be possible to design and synthesize members of the family optimized for dsDNA detection.

[3] = Fluorescence excitation and emission spectra of the dyes in buffer (Fluorolog-3 spectrometer); assay type: physicochemical; set-up: key to Excitation max. / Emission max.: peak wavelengths in nm
Text: The fluorescence of the exemplary fluorescent dyes in buffer was examined on a Fluorolog®-3 (a trademark of Spex Industries Inc.) spectrometer. The fluorescent dyes of the present invention have large Stokes shifts; the excitation and emission maxima are close to or greater than 100 nm apart. Peak wavelengths are tabulated in Table 2 along with two commercially available fluorescent dyes, TOTO-1TM and YO-[…]TM (trademarks of Molecular Probes, Inc.). The Stokes shifts of TOTO-1TM and YO-[…]TM are small in comparison to the dyes of the present invention.

ssDNA (20 mer) = assay: Emission intensity of dye with equimolar ssDNA relative to free dye (fluorescence spectrometer); settings: dye 1×10^−5 M in 1×PCR buffer; for change of the emission intensity in the presence of ssDNA: equimolar ssDNA; for Free dye rel. to ssDNA: equimolar ssDNA (20 mer), emission intensity ratio
Text: as §1
Emission intensities of the fluorescent dyes of the present invention and TOTO-1™ at 1×10^−5 M in 1×PCR buffer were compared in the absence of DNA (free dye emission) and in the presence of equimolar dsDNA or ssDNA (20 mer) on the fluorescence spectrometer.
The fluorescent dyes of the present invention have a large Stokes shift allowing the use of less sophisticated equipment for the detection of the emission intensity.

[4] = Stokes shift of MH dyes (FIG. 4); assay type: physicochemical
Text: Unlike Fluorescein and other commercially available dyes whose peak excitation and emission wavelengths are extremely close the MH dyes have ˜200 nm between peaks.

[5] = system: double-stranded DNA (dsDNA); settings: on a microplate reader; cited from earlier work
[6] = commercial dye data from Molecular Probes catalog; cited from earlier work
[7] = dye 1×10^−5 M in 1×PCR buffer, equimolar dsDNA

Row | Compound | Emission max. [3] | Excitation max. [3] | Stokes shift [3] [nm] | direction of change in emission intensity upon addition of DNA (dsDNA (20 mer)) | ssDNA/dsDNA selectivity (dsDNA [2]) | Free dye rel. to dsDNA (dsDNA (20 mer); dye 1×10^−5 M in 1×PCR buffer) | Free dye rel. to ssDNA (ssDNA (20 mer)) | also measured
1 | C[n+]1c(/C=C/c2ccc(OCCOCCOCCOc3ccc(/C=C/c4sc5ccccc5[n+]4C)cc3)cc2)sc2ccccc21 [HE-HE] | 616 | 400 | 216 | negative | only slightly more sensitive towards dsDNA than ssDNA | 13.5 | 1.19 | effect of ssDNA and dsDNA on dye emission (dsDNA (20 mer)): most pronounced; change of the emission intensity in the presence of dsDNA (dsDNA (20 mer); [7]): 13.5 times; dynamic range compared with TOTO-1™ (dsDNA [1]): greater dynamic range; sensitivity compared with TOTO-1™ (dsDNA [1]): more sensitive
2 | COc1ccc(/C=C/c2sc3ccccc3[n+]2C)cc1 [HE] | 500 | 385 | 115 | negative | – | – | – | –
3 | CN(C)c1ccc(/C=C/c2ccc(C(=O)[O-])s2)cc1.[Li+] [MH1] | – | – | – | – | – | – | – | Stokes shift (between peak excitation and emission wavelengths) [4]: ~200 nm
4 | O=C([O-])c1ccc(-c2ccc(/C=C/c3ccc(N(CCO)CCO)cc3)s2)s1.[Na+] [MH3] | – | – | – | – | – | – | – | Stokes shift (between peak excitation and emission wavelengths) [4]: ~200 nm
5 | CN(C)CCCN(CCCN(C)C)c1cc(C=C2Sc3ccccc3N2C)c2ccccc2[n+]1-c1ccccc1 [PicoGreen™] | – | – | – | – | – | – | – | dynamic range [5]: ~3 orders of magnitude; sensitivity for double-stranded DNA (dsDNA) [5]: 250 pg/mL
6 | CN1/C(=C/c2cc[n+](CCC[N+](C)(C)CCC[N+](C)(C)CCC[n+]3ccc(/C=C4\Sc5ccccc5N4C)c4ccccc43)c3ccccc23)Sc2ccccc21.[I-].[I-].[I-].[I-] [TOTO-1™, reference compound] | – | – | – | – | superior selectivity | 0.003 | 0.95 | change of the emission intensity upon interaction with dsDNA (dsDNA (20 mer); [7]): ~3 orders of magnitude; change of the emission intensity in the presence of ssDNA (ssDNA (20 mer)): very little change; Emission max. [6]: 533; Excitation max. [6]: 514; Stokes shift [6]: 19 nm
7 | CN1C(=CC=Cc2cc[n+](CCC[N+](C)(C)C)c3ccccc23)Oc2ccccc21.[I-].[I-] [YO-PRO-3 ™] | – | – | – | – | – | – | – | Emission max. [6]: 631; Excitation max. [6]: 612; Stokes shift [6]: 19 nm

The next lines start with results.

Row | Emission max. [3] | Excitation max. [3] | Stokes shift [3] [nm] | Compound | direction of change in emission intensity upon addition of DNA (dsDNA (20 mer)) | ssDNA/dsDNA selectivity (dsDNA [2]) | Free dye rel. to dsDNA (dsDNA (20 mer); dye 1×10^−5 M in 1×PCR buffer) | Free dye rel. to ssDNA (ssDNA (20 mer)) | also measured
8 | 585 | 500 | 85 | C[n+]1c(/C=C/c2ccc(N(CCO)CCO)cc2)sc2ccccc21 [Dye 95] | positive | significant preference for dsDNA | – | – | dynamic range compared with TOTO-1™ (dsDNA [1]): larger dynamic range; sensitivity compared with TOTO-1™ (dsDNA [1]): comparable
9 | 546 | 382 | 164 | C[n+]1c(/C=C/c2ccc(SCCO)cc2)sc2ccccc21 [FI] | negative | – | 28.7 | 0.98 | effect of ssDNA and dsDNA on dye emission (dsDNA (20 mer)): most pronounced; change of the emission intensity in the presence of dsDNA (dsDNA (20 mer); [7]): 28.7 times; change of the emission intensity in the presence of ssDNA (ssDNA (20 mer)): very little change
10 | 587 | 512 | 75 | CN(CCO)c1ccc(/C=C/c2sc3ccccc3[n+]2C)cc1 [GA] | positive | – | – | – | –
